This passage reports IC50 results from patent publication US10189845B2, “4,6-substituted-pyrazolo[1,5-a]pyrazines as janus kinase inhibitors” (ARRAY BIOPHARMA INC., priority 2014, dated 2019).

SMILES strings stand for the structures. Where two headings read alike, the source gives them in different places.

What all share (assay type): biochemical
One assay has as its target Human Tyk2 kinase domain (Homo sapiens (Human), UniProt P29597). Description: Tyk2 Inhibition Assay (Example A, Omnia kinase fluorescence peptide substrate assay). The settings on record: TYK2 Enzyme IC50 1 mM ATP, averaged IC50 ranges. An outline of the steps:
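IC50 values come from a 4-parameter logistic fit of percent-of-control data, with compounds at 2% final DMSO. Reactions held 1 nM His-tag-cleaved Tyk2 (aa 886–1187), 8 μM Omnia Y12 peptide and 1 mM ATP in pH 7.4 HEPES buffer with 10 mM MgCl2, Triton X-100 and DTT. Sox fluorescence (360/485 nm) was monitored kinetically over 45 min.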

For another assay, the target named is JAK1 (Homo sapiens (Human), UniProt P23458). Description: JAK1 Inhibition Assay (Example B, Omnia kinase fluorescence peptide substrate assay). The gist of the method: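 Kinetic fluorescence read (360 nm excitation, 485 nm emission, every 50 s over 45 min) of Omnia Y12 peptide (8 μM) phosphorylation by 12.5 nM human JAK1 at 1 mM ATP. Buffer: HEPES pH 7.4, MgCl2, Triton X-100, DTT; 2% DMSO. IC50 = concentration giving 50 POC on logistic curve.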
JAK1, sequence (P23458 whole entry): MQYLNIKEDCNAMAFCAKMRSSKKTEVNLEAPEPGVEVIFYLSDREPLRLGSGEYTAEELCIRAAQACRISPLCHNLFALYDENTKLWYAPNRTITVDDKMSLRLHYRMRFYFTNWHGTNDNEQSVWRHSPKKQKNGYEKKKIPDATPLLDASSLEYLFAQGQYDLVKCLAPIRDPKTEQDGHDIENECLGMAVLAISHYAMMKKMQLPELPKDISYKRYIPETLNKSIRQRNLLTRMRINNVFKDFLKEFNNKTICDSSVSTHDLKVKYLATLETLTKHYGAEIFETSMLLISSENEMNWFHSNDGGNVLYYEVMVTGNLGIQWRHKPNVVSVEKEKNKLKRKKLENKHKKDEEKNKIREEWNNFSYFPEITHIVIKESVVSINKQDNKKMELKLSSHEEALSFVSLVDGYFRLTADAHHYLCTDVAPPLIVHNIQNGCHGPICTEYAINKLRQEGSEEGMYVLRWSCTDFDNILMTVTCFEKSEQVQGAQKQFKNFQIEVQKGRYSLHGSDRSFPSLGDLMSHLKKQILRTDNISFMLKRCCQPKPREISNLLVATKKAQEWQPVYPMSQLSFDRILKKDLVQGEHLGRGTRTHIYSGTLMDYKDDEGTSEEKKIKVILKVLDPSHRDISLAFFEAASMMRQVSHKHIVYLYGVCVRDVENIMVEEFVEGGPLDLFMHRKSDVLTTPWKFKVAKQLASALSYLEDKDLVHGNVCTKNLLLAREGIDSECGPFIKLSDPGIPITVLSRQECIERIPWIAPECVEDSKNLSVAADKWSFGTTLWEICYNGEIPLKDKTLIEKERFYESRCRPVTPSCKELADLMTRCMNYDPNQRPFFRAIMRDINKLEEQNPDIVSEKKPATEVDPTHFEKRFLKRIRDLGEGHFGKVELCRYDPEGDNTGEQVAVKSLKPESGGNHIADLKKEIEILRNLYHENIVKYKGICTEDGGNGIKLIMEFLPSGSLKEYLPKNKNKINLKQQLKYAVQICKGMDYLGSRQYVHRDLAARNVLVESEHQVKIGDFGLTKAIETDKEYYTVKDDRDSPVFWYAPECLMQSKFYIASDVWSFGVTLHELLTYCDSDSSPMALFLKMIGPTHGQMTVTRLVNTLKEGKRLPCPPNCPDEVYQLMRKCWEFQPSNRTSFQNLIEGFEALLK

A further assay deals with JAK2 (Homo sapiens (Human), UniProt O60674). Description: JAK2 Inhibition Assay (Example C, Omnia kinase fluorescence peptide substrate assay). The settings on record: JAK2 Enzyme IC50 1 mM ATP, averaged IC50 ranges. The gist of the method:
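Kinetic fluorescence read of Omnia Y7 peptide (10 μM) phosphorylation, ex 360/em 485 nm every 50 s over 45 min, by 4 nM JAK2 at 1 mM ATP. Buffer 25 mM HEPES pH 7.4, 10 mM MgCl2, 0.01% Triton X-100, 1 mM DTT; final DMSO 2%. Percent-of-control values fitted by 4-parameter logistic for IC50.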

A further assay deals with JAK3 (Homo sapiens (Human), UniProt P52333). As to the kind of experiment: JAK3 Inhibition Assay (Example D, Omnia kinase fluorescence peptide substrate assay). The gist of the method:
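Omnia Sox-peptide kinetic read (ex 360 nm, em 485 nm, every 50 s over 45 min) tracked phosphorylation of 10 μM Y7 peptide by 2 nM recombinant JAK3 at 1 mM ATP. Buffer: 25 mM HEPES pH 7.4, 10 mM MgCl2, 0.01% Triton X-100, 1 mM DTT, with 2% DMSO final.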

The mark [1] stands for this setting: JAK1 Enzyme IC50 1 mM ATP, 1 mM ATP, averaged IC50 ranges.

Human Tyk2 kinase domain, sequence (P29597 886-1187): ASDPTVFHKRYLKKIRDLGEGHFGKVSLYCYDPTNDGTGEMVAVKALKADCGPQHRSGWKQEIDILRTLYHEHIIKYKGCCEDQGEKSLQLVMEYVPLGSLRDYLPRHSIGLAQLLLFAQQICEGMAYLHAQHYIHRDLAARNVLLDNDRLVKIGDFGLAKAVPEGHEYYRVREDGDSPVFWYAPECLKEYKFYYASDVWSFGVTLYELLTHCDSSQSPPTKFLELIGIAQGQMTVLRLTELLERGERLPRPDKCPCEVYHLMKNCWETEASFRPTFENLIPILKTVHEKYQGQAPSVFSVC
JAK2, sequence (O60674 whole entry): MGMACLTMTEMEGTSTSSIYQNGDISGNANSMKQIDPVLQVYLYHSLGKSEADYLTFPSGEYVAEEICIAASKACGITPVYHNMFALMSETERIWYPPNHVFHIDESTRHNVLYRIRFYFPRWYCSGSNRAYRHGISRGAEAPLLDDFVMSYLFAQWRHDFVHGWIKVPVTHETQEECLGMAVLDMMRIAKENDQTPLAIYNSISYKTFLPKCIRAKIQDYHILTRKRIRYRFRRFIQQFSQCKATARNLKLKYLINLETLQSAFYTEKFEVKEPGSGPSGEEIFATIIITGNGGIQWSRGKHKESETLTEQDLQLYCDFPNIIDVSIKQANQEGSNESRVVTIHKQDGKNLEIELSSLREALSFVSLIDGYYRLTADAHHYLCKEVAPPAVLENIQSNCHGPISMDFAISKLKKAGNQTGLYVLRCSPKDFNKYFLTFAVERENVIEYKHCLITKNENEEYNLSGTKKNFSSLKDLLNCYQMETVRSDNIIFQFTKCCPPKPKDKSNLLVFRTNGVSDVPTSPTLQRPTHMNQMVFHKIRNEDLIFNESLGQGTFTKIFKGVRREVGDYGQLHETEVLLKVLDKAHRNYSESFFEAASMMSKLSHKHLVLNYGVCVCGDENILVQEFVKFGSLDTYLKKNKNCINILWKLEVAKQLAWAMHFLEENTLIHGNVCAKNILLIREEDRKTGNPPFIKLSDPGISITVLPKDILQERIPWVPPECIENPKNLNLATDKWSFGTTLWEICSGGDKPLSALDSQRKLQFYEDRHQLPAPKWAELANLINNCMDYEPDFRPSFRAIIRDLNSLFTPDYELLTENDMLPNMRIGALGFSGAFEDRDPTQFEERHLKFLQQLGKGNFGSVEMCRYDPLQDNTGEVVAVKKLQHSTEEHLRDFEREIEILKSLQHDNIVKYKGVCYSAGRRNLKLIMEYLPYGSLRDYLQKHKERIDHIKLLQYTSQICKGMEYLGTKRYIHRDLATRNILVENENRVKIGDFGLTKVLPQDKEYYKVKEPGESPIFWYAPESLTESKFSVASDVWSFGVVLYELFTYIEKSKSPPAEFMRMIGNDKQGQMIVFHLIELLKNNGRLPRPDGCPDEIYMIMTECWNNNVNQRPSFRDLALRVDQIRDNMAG
JAK3, sequence (P52333 whole entry): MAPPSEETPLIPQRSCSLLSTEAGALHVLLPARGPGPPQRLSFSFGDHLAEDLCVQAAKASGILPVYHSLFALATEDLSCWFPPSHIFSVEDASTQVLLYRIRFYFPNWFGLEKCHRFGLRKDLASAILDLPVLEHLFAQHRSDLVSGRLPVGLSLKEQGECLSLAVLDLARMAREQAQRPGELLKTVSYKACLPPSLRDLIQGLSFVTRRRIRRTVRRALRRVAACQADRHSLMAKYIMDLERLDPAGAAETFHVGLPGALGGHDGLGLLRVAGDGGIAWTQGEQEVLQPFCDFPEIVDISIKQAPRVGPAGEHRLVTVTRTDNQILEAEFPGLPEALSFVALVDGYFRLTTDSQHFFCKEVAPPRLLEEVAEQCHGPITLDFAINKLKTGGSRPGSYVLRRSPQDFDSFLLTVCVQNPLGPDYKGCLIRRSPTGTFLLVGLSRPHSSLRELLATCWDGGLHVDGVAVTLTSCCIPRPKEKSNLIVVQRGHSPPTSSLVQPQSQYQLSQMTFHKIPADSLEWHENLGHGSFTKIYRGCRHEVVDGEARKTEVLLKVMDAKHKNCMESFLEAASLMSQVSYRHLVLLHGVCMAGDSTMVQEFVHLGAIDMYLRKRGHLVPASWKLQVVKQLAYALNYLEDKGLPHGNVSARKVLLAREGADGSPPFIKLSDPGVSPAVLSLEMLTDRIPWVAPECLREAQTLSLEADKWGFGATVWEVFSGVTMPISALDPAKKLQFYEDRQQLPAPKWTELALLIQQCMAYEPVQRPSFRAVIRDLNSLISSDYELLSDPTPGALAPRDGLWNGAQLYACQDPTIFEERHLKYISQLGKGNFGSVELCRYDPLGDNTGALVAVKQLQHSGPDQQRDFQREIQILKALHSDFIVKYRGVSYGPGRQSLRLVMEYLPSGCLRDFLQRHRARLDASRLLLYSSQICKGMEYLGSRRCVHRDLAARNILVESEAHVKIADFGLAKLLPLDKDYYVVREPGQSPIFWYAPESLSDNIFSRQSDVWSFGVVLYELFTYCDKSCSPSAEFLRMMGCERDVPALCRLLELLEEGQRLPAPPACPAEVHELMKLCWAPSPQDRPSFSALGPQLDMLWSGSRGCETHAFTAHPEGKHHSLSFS

Broadly, the IC50 is the midpoint of a concentration-inhibition curve. Higher therefore signals weaker potency. For `CCC[C@@H](C)n1cc(-c2nc(-c3cnn(C(CO)CO)c3)cn3nccc23)cn1` [Example 83, (R)-2-(4-(4-(1-(pentan-2-yl)-1H-pyrazol-4-yl)pyrazolo[1,5-a]pyrazin-6-yl)-1H-pyrazol-1-yl)propane-1,3-diol], the concentration for half-maximal inhibition (IC50) at Human Tyk2 kinase domain is 10 to 100 nM; at JAK1 it was 1000 to 10000 nM; at JAK2, 10 to 100 nM; against JAK3, 1000 to 10000 nM.

In the case of `CC[C@H](C)n1cc(-c2nc(-c3cnn(C(CO)CO)c3)cn3nccc23)cn1` [Example 84, (S)-2-(4-(4-(1-(sec-butyl)-1H-pyrazol-4-yl)pyrazolo[1,5-a]pyrazin-6-yl)-1H-pyrazol-1-yl)propane-1,3-diol], the half-inhibitory concentration (IC50) against Human Tyk2 kinase domain is 10 to 100 nM; against JAK1, 10 to 100 nM; against JAK2 it was 10 to 100 nM; against JAK3 it was 1000 to 10000 nM.

Regarding `CC(C)C[C@H](C)n1cc(-c2nc(-c3cnn(C(CO)CO)c3)cn3nccc23)cn1` [Example 87, (S)-2-(4-(4-(1-(4-methylpentan-2-yl)-1H-pyrazol-4-yl)pyrazolo[1,5-a]pyrazin-6-yl)-1H-pyrazol-1-yl)propane-1,3-diol], the half-maximal inhibitory concentration (IC50) was 100 to 1000 nM at Human Tyk2 kinase domain, 1000 to 10000 nM against JAK1, 100 to 1000 nM against JAK2 and 1000 to 10000 nM against JAK3.

Consider `CC(C)C[C@@H](C)n1cc(-c2nc(-c3cnn(C(CO)CO)c3)cn3nccc23)cn1` [Example 88, (R)-2-(4-(4-(1-(4-methylpentan-2-yl)-1H-pyrazol-4-yl)pyrazolo[1,5-a]pyrazin-6-yl)-1H-pyrazol-1-yl)propane-1,3-diol], for which the IC50 at Human Tyk2 kinase domain was in the range of 100 to 1000 nM; against JAK1, 1000 to 10000 nM; on JAK2, 100 to 1000 nM; against JAK3, 1000 to 10000 nM.

Take `CCC(CC)n1cc(-c2nc(-c3cnn([C@@H](C)[C@H](O)CO)c3)cn3nccc23)cn1` [Example 89, (2S,3S)-3-(4-(4-(1-(pentan-3-yl)-1H-pyrazol-4-yl)pyrazolo[1,5-a]pyrazin-6-yl)-1H-pyrazol-1-yl)butane-1,2-diol]: the IC50 was in the range of 10 to 100 nM on Human Tyk2 kinase domain, 100 to 1000 nM on JAK1, 10 to 100 nM on JAK2 and 1000 to 10000 nM against JAK3.

As to `CCC(CC)n1cc(-c2nc(-c3cnn(CC(=O)NC(C)C)c3)cn3nccc23)cn1` [Example 97, N-isopropyl-2-(4-(4-(1-(pentan-3-yl)-1H-pyrazol-4-yl)pyrazolo[1,5-a]pyrazin-6-yl)-1H-pyrazol-1-yl)acetamide], the IC50 lay in the range of 10 to 100 nM against Human Tyk2 kinase domain, 100 to 1000 nM against JAK1, 100 to 1000 nM on JAK2 and 1000 to 10000 nM on JAK3.

As to `CCC(CC)n1cc(-c2nc(-c3cnn(CC(O)CN)c3)cn3nccc23)cn1` (centres unmarked) [Example 98, 1-amino-3-(4-(4-(1-(pentan-3-yl)-1H-pyrazol-4-yl)pyrazolo[1,5-a]pyrazin-6-yl)-1H-pyrazol-1-yl)propan-2-ol], the IC50 on Human Tyk2 kinase domain lay in the range of 10 to 100 nM; on JAK1 (setting [1]) it was 1000 to 10000 nM; against JAK2, 10 to 100 nM; against JAK3, 1000 to 10000 nM.

For `CCC(CC)n1cc(-c2nc(-c3cnn(C[C@H](O)CN(C)C)c3)cn3nccc23)cn1` [Example 99, (R)-1-(dimethylamino)-3-(4-(4-(1-(pentan-3-yl)-1H-pyrazol-4-yl)pyrazolo[1,5-a]pyrazin-6-yl)-1H-pyrazol-1-yl)propan-2-ol], the 50% inhibitory concentration (IC50) on Human Tyk2 kinase domain is 10 to 100 nM; at JAK1 (setting [1]), 1000 to 10000 nM; against JAK2 it was 10 to 100 nM; at JAK3, 1000 to 10000 nM.

As to `CCC(CC)n1cc(-c2nc(-c3cnn(C[C@H](O)CNC)c3)cn3nccc23)cn1` [Example 100, (R)-1-(methylamino)-3-(4-(4-(1-(pentan-3-yl)-1H-pyrazol-4-yl)pyrazolo[1,5-a]pyrazin-6-yl)-1H-pyrazol-1-yl)propan-2-ol], the IC50 at Human Tyk2 kinase domain lay in the range of 10 to 100 nM; at JAK1 (setting [1]), 1000 to 10000 nM; on JAK2, 10 to 100 nM; on JAK3 it was 1000 to 10000 nM.

With `CCC(CC)n1cc(-c2nc(-c3cnn(C[C@@H](O)CN(C)C)c3)cn3nccc23)cn1` [Example 101, (S)-1-(dimethylamino)-3-(4-(4-(1-(pentan-3-yl)-1H-pyrazol-4-yl)pyrazolo[1,5-a]pyrazin-6-yl)-1H-pyrazol-1-yl)propan-2-ol], the IC50 against Human Tyk2 kinase domain lay within 10 to 100 nM; on JAK1 (setting [1]), 1000 to 10000 nM; at JAK2 it was 10 to 100 nM; on JAK3, 1000 to 10000 nM.

With `CCC(CC)n1cc(-c2nc(-c3cnn(C[C@@H](O)CNC)c3)cn3nccc23)cn1` [Example 102, (S)-1-(methylamino)-3-(4-(4-(1-(pentan-3-yl)-1H-pyrazol-4-yl)pyrazolo[1,5-a]pyrazin-6-yl)-1H-pyrazol-1-yl)propan-2-ol], the IC50 against Human Tyk2 kinase domain lay in the range of 100 to 1000 nM; at JAK1 (setting [1]) it was 1000 to 10000 nM; against JAK2 it was 10 to 100 nM; at JAK3, 1000 to 10000 nM.

As to `CCC(CC)n1cc(-c2nc(-c3cnn(C[C@H](O)CN4CC(OC)C4)c3)cn3nccc23)cn1` [Example 103, (R)-1-(3-methoxyazetidin-1-yl)-3-(4-(4-(1-(pentan-3-yl)-1H-pyrazol-4-yl)pyrazolo[1,5-a]pyrazin-6-yl)-1H-pyrazol-1-yl)propan-2-ol], the 50% inhibitory concentration (IC50) against Human Tyk2 kinase domain is 10 to 100 nM; against JAK1 (setting [1]), 1000 to 10000 nM; on JAK2 it was 10 to 100 nM; on JAK3, 1000 to 10000 nM.

For `CCC(CC)n1cc(-c2nc(-c3cnn(C[C@@H](O)CN4CC(OC)C4)c3)cn3nccc23)cn1` [Example 104, (S)-1-(3-methoxyazetidin-1-yl)-3-(4-(4-(1-(pentan-3-yl)-1H-pyrazol-4-yl)pyrazolo[1,5-a]pyrazin-6-yl)-1H-pyrazol-1-yl)propan-2-ol], the IC50 against Human Tyk2 kinase domain was in the range of 10 to 100 nM; against JAK1 (setting [1]) it was 1000 to 10000 nM; against JAK2 it was 10 to 100 nM; on JAK3 it was 1000 to 10000 nM.

For `CCC(CC)n1cc(-c2nc(-c3cnn(C[C@H](O)CN4CCCC4)c3)cn3nccc23)cn1` [Example 105, (R)-1-(4-(4-(1-(pentan-3-yl)-1H-pyrazol-4-yl)pyrazolo[1,5-a]pyrazin-6-yl)-1H-pyrazol-1-yl)-3-(pyrrolidin-1-yl)propan-2-ol], the IC50 on Human Tyk2 kinase domain was 100 to 1000 nM; at JAK1 (setting [1]), 1000 to 10000 nM; at JAK2 it was 100 to 1000 nM; against JAK3, 1000 to 10000 nM.

Take `CCC(CC)n1cc(-c2nc(-c3cnn(C[C@@H](O)CN4CCCC4)c3)cn3nccc23)cn1` [Example 106, (S)-1-(4-(4-(1-(pentan-3-yl)-1H-pyrazol-4-yl)pyrazolo[1,5-a]pyrazin-6-yl)-1H-pyrazol-1-yl)-3-(pyrrolidin-1-yl)propan-2-ol]: the IC50 against Human Tyk2 kinase domain was 100 to 1000 nM; on JAK1 (setting [1]), 1000 to 10000 nM; against JAK2, 100 to 1000 nM; against JAK3, 1000 to 10000 nM.

For `CCC(CC)n1cc(-c2nc(-c3cnn(C[C@@H](O)COC)c3)cn3nccc23)cn1` [Example 107, (R)-1-methoxy-3-(4-(4-(1-(pentan-3-yl)-1H-pyrazol-4-yl)pyrazolo[1,5-a]pyrazin-6-yl)-1H-pyrazol-1-yl)propan-2-ol], the IC50 against Human Tyk2 kinase domain fell in the range of 10 to 100 nM; against JAK1 it was 100 to 1000 nM; against JAK2 it was 10 to 100 nM; against JAK3 it was 1000 to 10000 nM.

With `CCC(CC)n1cc(-c2nc(-c3cnn(C[C@H](O)COC)c3)cn3nccc23)cn1` [Example 108, (S)-1-methoxy-3-(4-(4-(1-(pentan-3-yl)-1H-pyrazol-4-yl)pyrazolo[1,5-a]pyrazin-6-yl)-1H-pyrazol-1-yl)propan-2-ol], the 50% inhibitory concentration (IC50) against Human Tyk2 kinase domain lay within 10 to 100 nM; on JAK1 it was 100 to 1000 nM; against JAK2, 10 to 100 nM; against JAK3, 1000 to 10000 nM.

For the compound `CCC(CC)n1cc(-c2nc(-c3cnn(C[C@@H](C)O)c3)cn3nccc23)cn1` [Example 109, (R)-1-(4-(4-(1-(pentan-3-yl)-1H-pyrazol-4-yl)pyrazolo[1,5-a]pyrazin-6-yl)-1H-pyrazol-1-yl)propan-2-ol], the IC50 against Human Tyk2 kinase domain fell in the range of 100 to 1000 nM; against JAK1, 1000 to 10000 nM; at JAK2, 1000 to 10000 nM; at JAK3 it was 1000 to 10000 nM.

Regarding `CCC(CC)n1cc(-c2nc(-c3cnn(C[C@H](C)O)c3)cn3nccc23)cn1` [Example 110, (S)-1-(4-(4-(1-(pentan-3-yl)-1H-pyrazol-4-yl)pyrazolo[1,5-a]pyrazin-6-yl)-1H-pyrazol-1-yl)propan-2-ol], the IC50 against Human Tyk2 kinase domain lay in the range of 10 to 100 nM; at JAK1, 100 to 1000 nM; against JAK2, 10 to 100 nM; against JAK3, 1000 to 10000 nM.

Regarding `CCC(CC)n1cc(-c2nc(-c3cnn(CC(O)CC(F)(F)F)c3)cn3nccc23)cn1` (centres unmarked) [Example 111, 4,4,4-trifluoro-1-(4-(4-(1-(pentan-3-yl)-1H-pyrazol-4-yl)pyrazolo[1,5-a]pyrazin-6-yl)-1H-pyrazol-1-yl)butan-2-ol], the half-maximal inhibitory concentration (IC50) at Human Tyk2 kinase domain lay within 10 to 100 nM; at JAK1, 100 to 1000 nM; against JAK2, 10 to 100 nM; on JAK3, 1000 to 10000 nM.
